Measured values taken from article PMC10449418, “Adapting antibacterial display to identify serum-active macrocyclic peptide antibiotics” (PNAS Nexus, 2023).
No end group written: not given here.

Tests used:
E. coli 25922 [1] = test: MBC in 100% human serum (HS); assay type: cell-based, Escherichia coli
Text: Minimum inhibitory concentration (MIC) and minimum bactericidal concentration (MBC) assays are standard methods used to first examine antimicrobial potential. These assays are often performed against lab strains of bacteria grown in Mueller–Hinton (MH) media which is not representative of conditions found in the human body during infection. […] W3110 is a K12-derived strain and cannot grow in HS and lacks O-antigen on its cell surface in contrast to 25922. MBCs were used instead of MICs because HS was opaque, making bacterial growth difficult to observe by sight. We chose three cationic AMPs previously discovered using SLAY and four natural cationic AMPs, each with α-helical or β-hairpin secondary structure ([18–24]) (Table S1).

E. coli 25922 [2] = test: NPN outer membrane disruption assay; assay type: cell-based, Escherichia coli; settings: 30 min of treatment, PBS, various concentrations, n = 3
Text: (§1) First, we performed two fluorescent membrane disruption assays using 1-N-phenylnaphthylamine (NPN) and propidium iodide (PI). Normally the outer membrane excludes hydrophobic molecules such as NPN, but when damaged, NPN can bind hydrophobic fatty acids within the membrane and fluoresce. PI fluoresces upon DNA binding but can only gain access to the cytoplasm if both the outer and inner membranes have been permeabilized. Antibiotics tested retained antimicrobial activity under the assay conditions used (Fig. S3A).
A culture of E. coli 25922 was grown overnight in liquid media at 37°C. The following day, it was back diluted 1:25 in LB media and grown at 37°C until an OD600 of 0.5. The culture was then pelleted at 1,000 g, washed once with PBS, and resuspended to a final concentration of OD600 0.5. […] Each sample was loaded in triplicate into a 96-well optical-bottom plate and serially diluted two-fold with final volumes of 50 µl in each well. Fifty microliters of the 40 µM NPN was then added to each well, followed by 100 µl of the bacterial cell suspension. After 30 min, the plate was transferred to a BioTek Synergy LX multimode reader for fluorescent measurements. Triplicate samples were normalized to nontreated wells and presented as a mean ± 1 SD (n = 3).

G. mellonella larvae = test: LD50 in G. mellonella larvae; assay type: in vivo, Galleria mellonella; settings: single injection of a 100-mg/kg dose, death after 4 days, n = 10
Protocol: Live G. mellonella larvae were purchased from DBDPet. Larvae appearing fully healthy (no apparent melanization) and weighing between 200 and 300 mg were used for survival assays. Larvae were first injected into their second left proleg with 10 µl of PBS or PBS containing 1 × 10^6E. coli 25922 cells grown to an OD of 0.5 and washed in PBS. Injections were performed using a Hamilton 250-µl pipet equipped with an autodispenser and 30-gauge BD needle. […] Larvae groups were then incubated at 37°C for 72 h and observed for death. Larvae were determined to be dead if they were unable to right themselves after being placed on their back. Significance was determined by comparing Kaplan–Meier survival curves to untreated using a log-rank test (n ≥ 13 per sample).

E. coli 25922 [3] = test: PI uptake (outer and inner membrane permeabilization) assay; assay type: cell-based, Escherichia coli; settings: 30 min of treatment, PBS + 50 mM glucose, 37°C, n = 3
Text: as §1
PI uptake was measured for E. coli 25922 as previously described ([20]). Briefly, single colonies from overnight growth on LB were inoculated into MH broth and grown to mid-log phase. Cells were then washed twice with PBS + 50 mM glucose and resuspended to an OD = 0.1 in PBS + 50 mM glucose. PI was added at a concentration of 10 µg/ml, and 50 µl of the PI cell mixture was quickly added to a preprepared 96-well plate (NUNC black-walled clear bottom plate) that contained 50 µl of various peptide concentrations. The plate was then allowed to incubate for 30 min in the dark at 37°C and was then read using the Biotek Synergy LX plate reader with the fluorescence red filter cube. Triplicate samples were normalized to nontreated wells and presented as a mean ± 1 SD (n = 3).

E. coli 25922 [4] = test: MIC (growth inhibition) in MH media; assay type: cell-based, Escherichia coli; settings: 37°C, 18–24 h, examined by eye, median of three replicates

Row | Compound | serum activity (MBC in HS), in words (E. coli 25922 [1]) | NPN fluorescence (outer membrane permeation) (E. coli 25922 [2]) | LD50 for G. mellonella larvae (G. mellonella larvae) | PI uptake (outer and inner membrane permeabilization) (E. coli 25922 [3]) | Antibiotic activity against E. coli 25922: MIC (E. coli 25922 [4])
1 | CC(C)C[C@H](NC(=O)[C@H](CCCNC(=N)N)NC(=O)CNC(=O)CNC(=O)[C@@H](N)CCCNC(=N)N)C(=O)N[C@H]1CSSC[C@@H](C(=O)N[C@H](C(=O)NCC(=O)N[C@@H](CCCNC(=N)N)C(N)=O)C(C)C)NC(=O)[C@H](C(C)C)NC(=O)[C@@H]2CSSC[C@H](NC(=O)[C@H](Cc3ccc(O)cc3)NC1=O)C(=O)N[C@@H](CCCNC(=N)N)C(=O)N[C@@H](CCCNC(=N)N)C(=O)N[C@@H](CCCNC(=N)N)C(=O)N[C@@H](Cc1ccccc1)C(=O)N2 [Protegrin-1] | retained the most activity in HS relative to MH | strong fluorescence of both NPN and PI | over 100 mg/kg | strong fluorescence of both NPN and PI | 
2 | KWCFRVCYRGICYRRCR-NH2 (disulfide (positions not given here)) [Tachyplesin-1, natural β-AMP] | retained the most activity in HS relative to MH |  |  |  | 
3 | Kanamycin |  | no NPN fluorescence or PI uptake |  | no NPN fluorescence or PI uptake | 4 µg/mL
